Earlier results in patent US9820994B2, “Cerclage pessary containing progesterone of prolonged, sustained, and continuous release useful for prevention of preterm birth” (Laboratorios Andromaco S.A., priority 2014, dated 2017).

Tested on: women at risk of preterm birth (short cervix / history of preterm birth)

## CC(=O)[C@H]1CC[C@H]2[C@@H]3CCC4=CC(=O)CC[C@]4(C)[C@H]3CC[C@]12C [progesterone]
250 mg IM weekly, 200 mg daily vaginal suppositories, 90 mg vaginal gel
  Reduction in rate of spontaneous preterm birth before 33-34 weeks: approximately 40%
Vaginal progesterone group, singleton, previous preterm birth, cervical length less than 25 mm (Alfirevic et al., 2013)
  Rate of births before 34 weeks: ~30%
Vaginally administered, patients with short cervix
  Reduction of the rate of spontaneous preterm birth before 33-34 weeks: 40-45%
